Test results taken from article PMC6762200, “Discovery of novel West Nile Virus protease inhibitor based on isobenzonafuranone and triazolic derivatives of eugenol and indan-1,3-dione scaffolds” (PLoS ONE, 2019).

Key:
[1] = biological target: T1, WNV NS2B-NS3 protease (NS2B-NS3pro) (West Nile virus strain NY-99, UniProt Q9Q6P4); test: fluorogenic protease assay, pERTKR-AMC, four-parameter fit, […] concentrations; assay type: biochemical
T1 construct: gene GP1; cut from WNV genome polyprotein; with Serine protease subunit NS2B (cofactor region)
T1 sequence (Q9Q6P4 1423-1469): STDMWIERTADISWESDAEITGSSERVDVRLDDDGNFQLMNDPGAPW
T1 sequence (Q9Q6P4 1506-1689): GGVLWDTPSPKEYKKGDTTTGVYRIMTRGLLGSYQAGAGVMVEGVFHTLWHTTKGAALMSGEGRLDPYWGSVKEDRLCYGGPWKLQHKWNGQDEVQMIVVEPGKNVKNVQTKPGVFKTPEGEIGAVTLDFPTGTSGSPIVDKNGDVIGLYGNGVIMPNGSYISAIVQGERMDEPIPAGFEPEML

[2] = biological target: T1, WNV NS2B-NS3 protease (NS2B-NS3pro); test: fluorogenic protease assay, pERTKR-AMC, nonlinear fit in competitive mode; assay type: biochemical

## C=CCc1ccc(OCc2cn(Cc3ccccc3Br)nn2)c(OC)c1 [compound 35, 4-((4-allyl-2-methoxyphenoxy)methyl)-1-(2-bromobenzyl)-1H-1,2,3-triazole]
[1]
  IC50: 6.86 µM
[2]
  Ki: 3.06 µM
